The values below come from patent publication US9770537B2, “Solvent methods for preparing crystalline macrolide particulates, compositions, and articles containing particulates” (SurModics, Inc., priority 2013, dated 2017).

The nature of series [1]: Solubility / saturation point of rapamycin in solvents. The series is classed as physicochemical. As to conditions: xylene at 20° C. The method, then:
Rapamycin has a molecular weight of 914.17 g/mol and molecular formula: C51H79NO13 (see also FIG. 1). It is insoluble in water, but soluble in ethanol (2 mM), methanol (25 mg/mL), DMSO (25 mg/mL), chloroform, (5 mg/mL), ether, acetone and N,N-dimethylformamide. As commercially supplied, rapamycin exists as one isomer (structurally homogeneous) in the solid form as indicated by X-rays whereas in solution there are two conformational isomers (approx. 4:1) which exist in equilibrium.
As a general matter, the macrolide therapeutic can be dissolved and/or dispersed in a desired amount in a solvent, or mixture of solvents, for forming the macrolide particulates. As a general matter, dependent on the solvent or solvent combination, as well as the macrolide being dissolved, it is understood in the composition that the macrolide can display a maximum solubility at a predetermined temperature, such as about 20° C. At the maximum solubility a solution can be referred to as “saturated.” The amount of macrolide dissolved can be described in conventional terms such as mg/mL, % (wt/vol), or molar. For example, the saturation point of rapamycin in many solvents is in the range of 15 mg/mL to 150 mg/mL. […]

The conditions of series [2]: cited from earlier work.

≈ marks a conversion by molar mass, not a printed value.

Turning to `CO[C@H]1C[C@@H]2CC[C@@H](C)[C@@](O)(O2)C(=O)C(=O)N2CCCC[C@H]2C(=O)O[C@H]([C@H](C)C[C@@H]2CC[C@@H](O)[C@H](OC)C2)CC(=O)[C@H](C)/C=C(\C)[C@@H](O)[C@@H](OC)C(=O)[C@H](C)C[C@H](C)/C=C/C=C/C=C/1C` [Rapamycin, rapamycin], the “saturated solution concentration in xylene” value in series [1] is “about 75 mg/mL”. Moreover, the solubility in chloroform in series [2] (chloroform) was 5000 µg/mL (≈ 5.47 mM). For the same compound, the solubility in ethanol in series [2] (ethanol) was 2000 µM (≈ 1830 µg/mL). Moreover, the “solubility in ether, acetone and N,N-dimethylformamide” value in series [2] (ether, acetone, N,N-dimethylformamide) is “soluble”. Moreover, the solubility in water result in series [2] (water) is “insoluble”.
